This is an account of results in patent publication US5268361A, “Hydroxyazido derivatives and related compounds as renin inhibitors” (SRI International, priority 1991, dated 1993).

Test system in one test: not given
Experiment: not given
Conditions: animals; from cited publications; cited from earlier work.
As to `COc1ccc(C[C@H](NC(=O)CC(C)(C)N)C(=O)N[C@@H](Cc2cnc[nH]2)C(=O)N[C@@H](CC2CCCCC2)[C@@H](O)[C@@H](O)CC(C)C)cc1` [Compound A-64662], the Oral activity result is “orally active in animals”.

In another test the test system is Cynomolgus monkeys. Description: In vivo efficacy: oral administration to Cynomolgus monkeys, blood pressure monitoring. Conditions: salt-depleted, furosemide-pretreated male Cynomolgus monkeys; oral gavage 1.0 mg/kg. Here is the method:
b. In vivo efficacy: Oral activity of a number of the compounds of the invention was established by administration to Cynomolgus monkeys, a species known to be susceptible to the antihypertensive effect of renin inhibition. Two male monkeys, young adults approximately 3-6 kg at dosing, were tested over a six-week period. The animal room environment and photoperiod were controlled (temperature approximately 24° C., humidity 50±20%, 12 h light, 12 h dark), as was diet (low salt primate chow, plus discretionary supplements of fruit for at least 7 days prior to dosing). A diuretic (furosemide 1 mg/kg) was given daily by intravenous injection for 7 days prior to dosing.
The compounds of the invention were dissolved in 0.02 N HCl and prepared to the appropriate volume with sterile water. The pH of the solutions were adjusted to approximately 4.0 with 0.02 N NaOH. The solutions were then given orally by an oesophageal gavage at a dose level of 1.0 mg/kg, and a dose volume of 2 mL/kg body weight.
Prior to and following dosing, the animals were connected to an ECG and blood pressure monitor. Systolic, diastolic and mean blood pressure as well as heart rate were measured at 30 second intervals and recorded.
As to `CC(C)C[C@H](N=[N+]=[N-])[C@H](O)[C@H](CC1CCCCC1)NC(=O)[C@H](Cc1c[nH]cn1)NC(=O)[C@H](Cc1ccccc1)CS(=O)(=O)C(C)(C)C` [Compound X-2b, (4S, 5R, 6S)-4-Azido-7-cyclohexyl-5-hydroxy-2-methyl-6-[N^α -[(S)-2-benzyl-3-(tert-butylsulfonyl)-pripionyl]-L-histidyl]aminoheptane], the “Reduction in blood pressure” value was “Reduction in blood pressure was seen within approximately 1 to 6 hours”.
Consider `CC(C)C[C@H](N=[N+]=[N-])[C@H](O)[C@H](CC1CCCCC1)NC(=O)[C@H](Cc1c[nH]cn1)NC(=O)[C@H](Cc1ccccc1)OC(=O)N1CCOCC1` [IV-7, (4S, 5R, 6S)-4-Azido-7-cyclohexyl-5-hydroxy-2-methyl-6-[N^α -(2S-(morpholino-N-carbonyloxy)-3-phenylpropionyl)-L-histidyl]aminoheptane], for which the “Reduction in blood pressure” value is “Reduction in blood pressure was seen within approximately 1 to 6 hours”.

A further test concerns the target T1, human kidney renin (Homo sapiens, UniProt P00797).
T1 construct: 0.24 mGU human kidney renin; from tissue; host or cells: human kidney
T1 sequence (P00797 67-406): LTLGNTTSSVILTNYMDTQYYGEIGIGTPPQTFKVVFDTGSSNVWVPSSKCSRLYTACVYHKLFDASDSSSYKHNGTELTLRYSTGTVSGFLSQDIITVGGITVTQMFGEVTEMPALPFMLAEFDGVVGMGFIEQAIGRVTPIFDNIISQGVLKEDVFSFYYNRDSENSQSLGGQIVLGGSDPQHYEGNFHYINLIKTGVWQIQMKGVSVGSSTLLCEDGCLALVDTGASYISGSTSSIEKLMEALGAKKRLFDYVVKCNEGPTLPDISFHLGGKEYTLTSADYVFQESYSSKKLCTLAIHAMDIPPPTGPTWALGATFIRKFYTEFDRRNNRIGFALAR
Description: Human renin enzyme assay with angiotensin I radioimmunoassay. Particulars: angiotensinogen substrate, pH 6.0 maleate buffer, 37° C., 50% reduction in the release of angiotensin I. The class given is biochemical. As for the experimental part: a. Human Renin Enzyme Assay. The human renin enzyme assay described by Sham et al., J. Med. Chem. 31:284-295 (1988) was carried out by mixing 0.24 mGU human kidney renin, 0.21 αμM of angiotensinogen in 0.135 M, pH 6.0, maleate buffer containing 3 mM EDTA, 1.4 mM PMSF, and 0.44% BSA. The total assay volume was 100 μl. All inhibitors were dissolved in DMSO first and diluted with 0.5% BSA to give the appropriate concentrations for testing. The final DMSO concentration in the assay mixture was kept constant at 1%. […] For assay, 90 μl of the above-mentioned maleate buffer containing the renin and inhibitor was preincubated at 37° C. for 5 min and the reaction was continued for 10 additional min after adding 10 μl of substrate. The reaction was stopped by immersion of all tubes in a dry ice acetone-methanol bath. All samples were thawed to 0.4° C. and an aliquot from each tube was taken for the Angiotensin I RIA assay.
b. Angiotensin I Radioimmunoassay. A 100 μl portions of 5% BSA containing a small aliquot of the above enzyme mixture was mixed with 100 μl of angiotensin I [^125 I] (500 mCi/mg) in 0.1M Tris-acetate buffer, pH 7.4 (one part angiotensin I in 50 parts buffer), and 500 μl of antiserum (the lyophilized powder was reconstituted with 125 ml of 0.1M Tris-acetate buffer, pH 7.4). The mixture was incubated at 4° C. for 18 to 24 h. At the end of the incubation, 1.0 mL of charcoal suspension (600 mg of charcoal in 50 mL of 0.1M Tris-acetate buffer, pH 7.4) was pipetted into each tube. The charcoal suspension was stirred constantly during the transfer. The samples were mixed and then centrifuged at 3000×g for 15 min. The supernatants were transferred into properly numbered tubed for gamma counting.
A reagent blank was carried out with each assay. The blank tube contained 100 μl of 5% bovine serum albumin (BSA), 100 μl of angiotensin I [^125 I], and 500 μl of 0.1M Tris-acetate buffer.
A standard curve was prepared with each set of experiments by mixing various amounts (5 to 0.1 ng/ml) of angiotensin I in 0.1M Tris-acetate buffer containing 5% BSA and the same amounts of ^125 I-angiotensin I and antiserum as for the RIA assay. The tubes containing the standards were treated exactly like those containing the samples. The amount of angiotensin I produced by the enzyme in each sample was calculated using an angiotensin I standard curve.
The whole process of RIA was carried out at 0° to 4° C. to avoid deterioration of antiserum and angiotensin I. Only polystyrene tubes were used. Polystyrene tubes had shown no affinity for antibody under the assay conditions described above.
An IC50 was calculated for each inhibitor tested by conducting the assay in the presence of different concentrations of inhibitor. The inhibitor concentration that caused a 50% reduction in the release of angiotensin I when compared to control (no inhibitor) values was then calculated.
`CC(C)CC(N=[N+]=[N-])C(O)[C@H](CC(C)C)NC(=O)[C@H](Cc1c[nH]cn1)NC(=O)[C@H](Cc1cccc2ccccc12)NC(=O)OCc1ccccc1` (stereo partly drawn) [Compound I-5b, 4-Azido-6-(S)-[N^α -[N-benzyloxycarbonyl-3-(1-naphthyl)-L-alanyl]-L-histidyl]-amino-2,8-dimethyl-5-nonanol] came in with an IC50 of 190 nM.
Same read-out and setting: then `CC(C)C[C@H](N=[N+]=[N-])[C@H](O)[C@H](CC1CCCCC1)NC(=O)[C@H](Cc1c[nH]cn1)NC(=O)[C@H](Cc1ccccc1)NC(=O)N1CCOCC1` [Compound V-4, (4S, 5R, 6S)-4-Azido-7-cyclohexyl-5-hydroxy-2-methyl-6-[N^α -(N-(morpholino-N-carbonyl)L-phenylalanyl)-L-histidyl]aminoheptane], with 0.58 nM; and `CC(C)C[C@H](N=[N+]=[N-])[C@H](O)[C@H](CC1CCCCC1)NC(=O)[C@H](Cc1c[nH]cn1)NC(=O)[C@H](Cc1ccccc1)CS(=O)(=O)C(C)(C)C` [Compound X-2b, (4S, 5R, 6S)-4-Azido-7-cyclohexyl-5-hydroxy-2-methyl-6-[N^α -[(S)-2-benzyl-3-(tert-butylsulfonyl)-pripionyl]-L-histidyl]aminoheptane], with 0.006 nM; and `CC(C)C[C@H](N=[N+]=[N-])[C@H](O)[C@H](CC(C)C)NC(=O)[C@H](Cc1c[nH]cn1)NC(=O)[C@H](Cc1ccccc1)OC(=O)N1CCOCC1` [III-6, (4S, 5R, 6S)-4-Azido-5-hydroxy-2,8-dimethyl-6-[N^α -(2S-(morpholino-N-carbonyloxy)-3-phenylpropionyl)-L-histidyl]aminononane], with 110 nM.
Same read-out and setting: then `CC(C)C[C@H](N=[N+]=[N-])[C@H](O)[C@H](CC1CCCCC1)NC(=O)[C@H](Cc1c[nH]cn1)NC(=O)[C@H](Cc1ccccc1)OC(=O)N1CCOCC1` [IV-7, (4S, 5R, 6S)-4-Azido-7-cyclohexyl-5-hydroxy-2-methyl-6-[N^α -(2S-(morpholino-N-carbonyloxy)-3-phenylpropionyl)-L-histidyl]aminoheptane], with 1.7 nM; and `CC(C)C[C@H](N=[N+]=[N-])[C@H](O)[C@H](CC1CCCCC1)NC(=O)[C@H](Cc1c[nH]cn1)NC(=O)[C@H](Cc1ccccc1)NC(=O)CC(C)(C)N` [IX-6], with 5.4 nM; and `CC(C)C[C@H](N=[N+]=[N-])[C@H](O)[C@H](CC1CCCCC1)NC(=O)[C@H](Cc1c[nH]cn1)NC(=O)C(CC(=O)N1CCOCC1)Cc1ccccc1` (stereo partly drawn) [VI-6b, (4S, 5R, 6S)-4-Azido-6-[N^α -(2-benzyl-3-(morpholino-N-carbonyl)propionyl)-L-histidyl]amino-7-cyclohexyl-5-hydroxy-2-methylheptane], with 0.64 nM.
On the same count and under the same terms, the value for `CC(C)CC(N=[N+]=[N-])C(=O)C(CC1CCCCC1)NC(=O)[C@H](Cc1c[nH]cn1)NC(=O)[C@H](Cc1ccccc1)OC(=O)N1CCOCC1` (stereo partly drawn) [VII-2, 4-Azido-7-cyclohexyl-2-methyl-5-oxo-6-[N^α -(2S-(morpholino-N-carbonyloxy)-3-phenylpropionyl)-L-histidyl]amino heptane] was 5.1 nM; that for `CC(C)C[C@H](N=[N+]=[N-])[C@H](O)[C@H](CC1CCCCC1)NC(=O)[C@H](Cc1c[nH]cn1)NC(=O)/C(=C/c1ccccc1)CC(=O)N1CCOCC1` [VIII-3, (4S, 5R, 6S)-4-Azido-7-cyclohexyl-5-hydroxy-2-methyl-6-[N^α -[(E)-2-[(4-morphorinylcarbonyl)-methyl]cinnamyl]-L-histidyl]aminoheptane] was 0.85 nM.
For `COCCOCCN(C)C(=O)C[C@@H](Cc1ccccc1)C(=O)N[C@@H](Cc1c[nH]cn1)C(=O)N[C@@H](CC1CCCCC1)[C@@H](O)[C@H](CC(C)C)N=[N+]=[N-]` [XI-2], the IC50 was 0.008 nM.
